Assay results: patent US20150191459A1, “CATHEPSIN INHIBITORS” (ViroBay, Inc., priority 2013, published 2015)
pKi: −log10 of the molar value.

biological target: Human cathepsin B (Homo sapiens, UniProt P07858); assay: Cathepsin B Assay; assay type: biochemical; details: apparent inhibition constant; Boc-Leu-Arg-Arg-AMC substrate; pH 6; 30 minutes pre-incubation; read-out: cat B Ki
Description: Solutions of test compounds in varying concentrations were prepared in 10 μL of dimethyl sulfoxide (DMSO) and then diluted into assay buffer (40 μL, comprising: N,N-bis(2-hydroxyethyl)-2-aminoethanesulfonic acid (BES), 50 mM (pH 6); polyoxyethylenesorbitan monolaurate, 0.05%; and dithiothreitol (DTT), 2.5 mM). Human cathepsin B (0.025 pMoles in 25 μL of assay buffer) was added to the dilutions. The assay solutions were mixed for 5-10 seconds on a shaker plate, covered and incubated for 30 minutes at ambient temperature. Boc-Leu-Arg-Arg-AMC (20 μM in 1% DMSO) was added to the assay solutions and hydrolysis was followed spectrophotometrically at (λ 460 nm) for 5 minutes. Apparent inhibition constants (Ki) were calculated from the enzyme progress curves using standard mathematical models.

Structure (SMILES)	pKi
N#CC1(NC(=O)[C@H](Cc2cc(Cl)c(O)c(Cl)c2)N[C@@H](c2ccc(Br)cc2)C(F)(F)F)CC1 [N-(1-Cyanocyclopropyl)-2S-[2,2,2-trifluoro-1S-(4-bromophenyl)-ethylamino]-3-(3,5-dichloro-4-hydroxyphenyl)-propanamide]	7.35
N#CC1(NC(=O)[C@H](Cc2cc(I)c(O)c(I)c2)N[C@@H](c2ccc(Br)cc2)C(F)(F)F)CC1 [N-(1-Cyanocyclopropyl)-2S-[2,2,2-trifluoro-1S-(4-bromophenyl)-ethylamino]-3-(3,5-diiodo-4-hydroxyphenyl)-propanamide]	7.89
N#CC1(NC(=O)[C@H](Cc2cc(Cl)c(O)c(Cl)c2)N[C@@H](c2ccc(F)cc2)C(F)(F)F)CC1 [N-(1-Cyanocyclopropyl)-2S-[2,2,2-trifluoro-1S-(4-fluorophenyl)-ethylamino]-3-(3,5-dichloro-4-hydroxyphenyl)-propanamide]	6.89
N#CCNC(=O)[C@H](Cc1cc(I)c(O)c(I)c1)N[C@@H](c1ccc(Br)cc1)C(F)(F)F [N-Cyanomethyl-2S-[2,2,2-trifluoro-1S-(4-bromophenyl)-ethylamino]-3-(3,5-diiodo-4-hydroxyphenyl)-propanamide]	8.46
CC[C@H](NC(=O)[C@H](Cc1cc(Cl)c(O)c(Cl)c1)N[C@@H](c1ccc(F)cc1)C(F)(F)F)C(=O)C(=O)NC1CC1 [N-Cyclopropyl-3S-{3-[3,5-dichloro-4-hydroxyphenyl)-2S-(2,2,2-trifluoro)-1S-(4-fluorophenyl)ethylamino]propionylamino}-2-oxopentanamide]	≥ 9.00

Other lines, results leading:

pKi	Structure (SMILES)
8.82	CC[C@H](NC(=O)[C@H](Cc1cc(Cl)c(O)c(Cl)c1)N[C@@H](c1ccc(Br)cc1)C(F)(F)F)C(=O)C(=O)NC1CC1 [N-cyclopropyl-3S-{3-[3,5-dichloro-4-hydroxyphenyl)-2S-(2,2,2-trifluoro)-1S-(4-bromophenyl)ethylamino]propionylamino}-2-oxopentanamide]
8.89	CC[C@H](NC(=O)[C@H](Cc1cc(I)c(O)c(I)c1)N[C@@H](c1ccc(Br)cc1)C(F)(F)F)C(=O)C(=O)NC1CC1 [N-cyclopropyl-3S-{3-[3,5-diiodo-4-hydroxyphenyl)-2S-(2,2,2-trifluoro)-1S-(4-bromophenyl)ethylamino]propionylamino}-2-oxopentanamide]
8.94	CC[C@H](NC(=O)[C@H](Cc1cc(I)c(O)c(I)c1)N[C@@H](c1ccc(F)cc1)C(F)(F)F)C(=O)C(=O)NC1CC1 [N-cyclopropyl-3S-{3-[3,5-diiodo-4-hydroxyphenyl)-2S-(2,2,2-trifluoro)-1S-(4-fluorophenyl)ethylamino]propionylamino}-2-oxopentanamide]
